Results published in patent US11926621B1, “N′-(2-(5-(4-chlorophenyl)-1,3,4-oxadiazol-2-ylthio)acetoxy)benzo[d][1,3]dioxole-5-carboximidamide as an antimicrobial compound” (KING FAISAL UNIVERSITY, priority 2023, dated 2024).

Assays:
Type in all cases: cell-based
[1] = test system: Bacillus cereus; assay: Agar plate disc-diffusion, antibacterial inhibition zone; conditions: nutrient agar, 37° C., 48 h
Method: The agar plate disc-diffusion method was applied. […] The discs were then placed onto the surface of agar plates (nutrient agar for bacteria and Sabouraud's dextrose agar for fungi) seeded with the test organism. Each plate contained 15 mL of the agar medium, previously seeded with 0.2 mL of the broth culture of each organism pregrown for 18 hours. The plates were incubated at 37° C. for 48 h, and 72 h for fungi. The inhibition zones were measured in mm. Discs impregnated with DMSO were used as a control, and its inhibition zone was subtracted from the tested compound actual inhibition zone.
(§1) The results of the antimicrobial testing can be observed in Tables 1 and 2, below, using ciprofloxacin as a reference.

[2] = test system: Escherichia coli; assay: as above; conditions: nutrient agar, 37° C., 48 h
Method: (§2) The agar plate disc-diffusion method was applied. Sterilized filter papers (6 mm in diameter) were wetted with 10 μL of a solution of N′-(2-(5-(4-chlorophenyl)-1,3,4-oxadiazol-2-ylthio)acetoxy)benzo[d][1,3]dioxole-5-carboximidamide (3) to be tested, […], and the discs were allowed to air dry. The discs were then placed onto the surface of agar plates (nutrient agar for bacteria and Sabouraud's dextrose agar for fungi) seeded with the test organism. Each plate contained 15 mL of the agar medium, previously seeded with 0.2 mL of the broth culture of each organism pregrown for 18 hours. The plates were incubated at 37° C. for 48 h, and 72 h for fungi. The inhibition zones were measured in mm. Discs impregnated with DMSO were used as a control, and its inhibition zone was subtracted from the tested compound actual inhibition zone.
as §1

[3] = test system: Pseudomonas aeruginosa; assay: as above; conditions: nutrient agar, 37° C., 48 h
Method: as §2, §1

[4] = test system: Staphylococcus aureus; assay: as above; conditions: nutrient agar, 37° C., 48 h
Method: as §2, §1

[5] = test system: Aspergillus flavus; assay: Agar plate disc-diffusion, antifungal inhibition zone; conditions: Sabouraud's dextrose agar, 72 h
Method: The agar plate disc-diffusion method was applied. Sterilized filter papers (6 mm in diameter) were wetted with 10 μL of a solution of N′-(2-(5-(4-chlorophenyl)-1,3,4-oxadiazol-2-ylthio)acetoxy)benzo[d][1,3]dioxole-5-carboximidamide (3) to be tested, containing 10 mg/mL in DMSO, and the discs were allowed to air dry. The discs were then placed onto the surface of agar plates (nutrient agar for bacteria and Sabouraud's dextrose agar for fungi) seeded with the test organism. Each plate contained 15 mL of the agar medium, previously seeded with 0.2 mL of the broth culture of each organism pregrown for 18 hours. The plates were incubated at 37° C. for 48 h, and 72 h for fungi. The inhibition zones were measured in mm. Discs impregnated with DMSO were used as a control, and its inhibition zone was subtracted from the tested compound actual inhibition zone.
as §1

[6] = test system: Chrysosporium keratinophilum; assay: as above; conditions: Sabouraud's dextrose agar, 72 h
Method: as §2, §1

[7] = A = concentration of comp. = 10,000 μL
[8] = B = concentration of comp. = 30.000 μL
[9] = C = concentration of comp. = 50,000 μL

SMILES: N/C(=N\OC(=O)CSc1nnc(-c2ccc(Cl)cc2)o1)c1ccc2c(c1)OCO2 [Compound 3, N′-(2-(5-(4-chlorophenyl)-1,3,4-oxadiazol-2-ylthio)acetoxy)benzo[d][1,3]dioxole-5-carboximidamide]
- inhibition zone, Bacillus Cereus, A [1, 7]: 23 mm
- inhibition zone, Bacillus Cereus, B [1, 8]: 28 mm
- inhibition zone, Bacillus Cereus, C [1, 9]: 37 mm
- inhibition zone, Escherichia coli, A [2, 7]: 25 mm
- inhibition zone, Escherichia coli, B [2, 8]: 30 mm
- inhibition zone, Escherichia coli, C [2, 9]: 43 mm
- inhibition zone, Pseudomonas aeruginosa, A [3, 7]: 22 mm
- inhibition zone, Pseudomonas aeruginosa, B [3, 8]: 25 mm
- inhibition zone, Pseudomonas aeruginosa, C [3, 9]: 32 mm
- inhibition zone, Staphylococcus aureus, A [4, 7]: 25 mm
- inhibition zone, Staphylococcus aureus, B [4, 8]: 31 mm
- inhibition zone, Staphylococcus aureus, C [4, 9]: 40 mm
- inhibition zone, Aspergillus flavus, A [5, 7]: 25 mm
- inhibition zone, Aspergillus flavus, B [5, 8]: 28 mm
- inhibition zone, Aspergillus flavus, C [5, 9]: 38 mm
- inhibition zone, Chrysosporium keratinophilum, A [6, 7]: 24 mm
- inhibition zone, Chrysosporium keratinophilum, B [6, 8]: 29 mm
- inhibition zone, Chrysosporium keratinophilum, C [6, 9]: 45 mm
